Our source for the IC50 values is patent US9963444B2, “N-acylethanolamine hydrolyzing acid amidase (NAAA) inhibitors and their use thereof” (Northeastern University, priority 2014, dated 2018).

For the first test, the target named is hNAAA (Homo sapiens (Human), UniProt Q02083). Put plainly: Fluorescence-based NAAA inhibition assay with fluorogenic substrate PAMCA.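 Note: compound preincubated 15 min at room temperature with hNAAA, then PAMCA added at 5 µM, reacted 120 min at 37 °C, AMC release read by fluorescence (ex 360, em 460 nm).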
Chain of hNAAA (Q02083 29-125): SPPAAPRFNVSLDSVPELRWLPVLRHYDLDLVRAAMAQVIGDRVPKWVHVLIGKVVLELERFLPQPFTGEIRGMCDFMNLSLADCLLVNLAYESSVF
Chain of hNAAA (Q02083 126-359): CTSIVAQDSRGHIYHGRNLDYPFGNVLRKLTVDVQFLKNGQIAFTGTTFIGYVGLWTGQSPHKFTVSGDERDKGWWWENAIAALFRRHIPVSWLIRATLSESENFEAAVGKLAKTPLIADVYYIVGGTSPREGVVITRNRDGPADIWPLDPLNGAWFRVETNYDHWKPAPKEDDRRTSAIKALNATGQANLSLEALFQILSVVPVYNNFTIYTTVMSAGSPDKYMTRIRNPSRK
Details: not given
The compound `COc1ncccc1-c1ccc(COC2CN(C#N)C2)cc1` [Example 74, 3-((4-(2-Methoxypyridin-3-yl)benzyl)oxy)azetidine-1-carbonitrile] returned a half-inhibitory concentration (IC50) of 0.01 to 0.1 µM.

In turn, `N#CN1CC(OCc2ccc(-c3cccc(OCc4ccccc4)c3)cc2)C1` [Example 85, 3-((3′-(Benzyloxy)-[1,1′-biphenyl]-4-yl)methoxy)azetidine-1-carbonitrile] gave an IC50 of 0.01 to 0.1 µM.

Take `S=C=NCCOCCOCCOCc1ccccc1` [Example 23, ((2-(2-(2-Isothiocyanatoethoxy)ethoxy)ethoxy)methyl)benzene]: the IC50 was in the range of 0.01 to 0.1 µM.

`COc1cccc(-c2ccc(COC3CN(C#N)C3)cc2)c1OC` [Example 69, 3-((2′,3′-Dimethoxy-[1,1′-biphenyl]-4-yl)methoxy)azetidine-1-carbonitrile] had an IC50 of 0.01 to 0.1 µM.

Take `N#CN1CC(OCc2ccc(-c3ccc4c(c3)OCO4)cc2)(c2ccccc2)C1` [Example 97, 3-((4-(Benzo[d][1,3]dioxol-5-yl)benzyl)oxy)-3-phenylazetidine-1-carbonitrile]: the IC50 lay in the range of 0.01 to 0.1 µM.

In the case of `N#CN1CC(COCc2ccc(-c3ccccc3)cc2)C1` [Example 86, 3-(([1,1′-Biphenyl]-4-ylmethoxy)methyl)azetidine-1-carbonitrile], the IC50 lay within 0.01 to 0.1 µM.

With `CN(Cc1ccc(-c2ccccc2)cc1)[C@H]1C[C@@H](N=C=S)C1` [Example 54, (1S,3S)—N-([1,1′-biphenyl]-4-ylmethyl)-3-isothiocyanato-N-methylcyclobutan-1-amine], the IC50 was more than 1 µM.

Compound `N#CN1CC[C@@H](OCc2ccc(-c3ccccc3)cc2)C1` [Example 105, (R)-3-([1,1′-biphenyl]-4-ylmethoxy)pyrrolidine-1-carbonitrile] yielded an IC50 of 0.01 to 0.1 µM.

In turn, `Cc1ccc(-c2ccc(CO[C@H]3C[C@H](N=C=S)C3)cc2)cc1` [Example 28, 4-(((1R,3R)-3-Isothiocyanatocyclobutoxy)methyl)-4′-methyl-1,1′-biphenyl] had a concentration for half-maximal inhibition (IC50) of 0.11 to 1 µM.

On to `S=C=NC[C@H]1C[C@@H](OCc2ccc(-c3ccccc3)cc2)C1` [Example 57, 4-(((1S,3S)-3-(isothiocyanatomethyl)cyclobutoxy)methyl)-1,1′-biphenyl], for which the IC50 lay within 0.11 to 1 µM.

In turn, `S=C=NCCCOCc1ccc(-c2ccccc2)cc1` [Example 25, 4-((3-Isothiocyanatopropoxy)methyl)-1,1′-biphenyl] registered an IC50 of 0.01 to 0.1 µM.

`S=C=NCCCCCCCCCCc1ccncc1` [Example 19, 4-(10-Isothiocyanatodecyl)pyridine] showed an IC50 of 0.01 to 0.1 µM.

As for `Fc1cc(-c2ccc3c(c2)OCCO3)ccc1CO[C@H]1C[C@@H](N=C=S)C1` [Example 38, 6-(3-Fluoro-4-(((1S,3S)-3-isothiocyanatocyclobutoxy)methyl)phenyl)-2,3-dihydrobenzo[b][1,4]dioxine], the IC50 fell in the range of 0.01 to 0.1 µM.

`S=C=NCCCCCCCCCCc1ccccn1` [Example 18, 2-(10-Isothiocyanatodecyl)pyridine] came in with an IC50 of 0.01 to 0.1 µM.

In the case of `N#CN1CC(OCc2ccc(Oc3ccccc3)cc2-c2ccccc2)C1` [Example 87, 3-((5-Phenoxy-[1,1′-biphenyl]-2-yl)methoxy)azetidine-1-carbonitrile], the IC50 lay in the range of 0.01 to 0.1 µM.

In turn, `COc1ccc(-c2ccc(O[C@H]3C[C@H](N=C=S)C3)cc2)cc1F` [Example 51, 3-Fluoro-4′-((1R,3R)-3-isothiocyanatocyclobutoxy)-4-methoxy-1,1′-biphenyl] had an IC50 of 0.01 to 0.1 µM.

Regarding `N#CN1CC(OCc2ccc(-c3ccccc3)cc2)C1` [Example 64, 3-([1,1′-Biphenyl]-4-ylmethoxy)azetidine-1-carbonitrile], the IC50 fell in the range of 0.01 to 0.1 µM.

As for `COc1ccc(-c2cc(Oc3ccccc3)ccc2COC2CN(C#N)C2)cc1` [Example 90, 3-((4′-Methoxy-5-phenoxy-[1,1′-biphenyl]-2-yl)methoxy)azetidine-1-carbonitrile], the IC50 fell in the range of 0.01 to 0.1 µM.

Compound `CCOc1ccc(-c2ccc(CO[C@H]3C[C@@H](N=C=S)C3)c(F)c2)cc1F` [Example 36, 4-Ethoxy-3,3′-difluoro-4′-(((1S,3S)-3-isothiocyanatocyclobutoxy)methyl)-1,1′-biphenyl] displayed an IC50 of 0.01 to 0.1 µM.

As for `Cn1cc(-c2ccc(C(OC3CN(C#N)C3)c3ccccc3)cc2)cn1` (centres unmarked) [Example 102, 3-((4-(1-Methyl-1H-pyrazol-4-yl)phenyl)(phenyl)methoxy)azetidine-1-carbonitrile], the IC50 lay within 0.01 to 0.1 µM.

As to `N#CN1CC(OCc2ccc(-c3cccnc3)cc2)C1` [Example 72, 3-((4-(Pyridin-3-yl)benzyl)oxy)azetidine-1-carbonitrile], the IC50 was in the range of 0.01 to 0.1 µM.

With `S=C=NCCCOCc1ccc(Oc2ccccc2)cc1` [Example 26, 1((3-Isothiocyanatopropoxy)methyl)-4-phenoxybenzene], the IC50 lay within 0.01 to 0.1 µM.

Consider `Cc1ccc(-c2ccc(CO[C@H]3C[C@@H](N=C=S)C3)cc2)cc1` [Example 29, 4-(((1S,3S)-3-Isothiocyanatocyclobutoxy)methyl)-4′-methyl-1,1′-biphenyl], for which the IC50 fell in the range of 0.01 to 0.1 µM.

In turn, `COc1ccc(-c2ccc(COC3CN(C#N)C3)cc2)cn1` [Example 73, 3-((4-(6-Methoxypyridin-3-yl)benzyl)oxy)azetidine-1-carbonitrile] had an IC50 of 0.01 to 0.1 µM.

Take `COc1cccc(-c2ccc(COC3CN(C#N)C3)cc2)c1` [Example 67, 3-((3′-Methoxy-[1,1′-biphenyl]-4-yl)methoxy)azetidine-1-carbonitrile]: the IC50 is 0.01 to 0.1 µM.

In turn, `COc1cccc(OC)c1-c1ccc(COC2CN(C#N)C2)cc1` [Example 83, 3-((2′,6′-Dimethoxy-[1,1′-biphenyl]-4-yl)methoxy)azetidine-1-carbonitrile] came in with an IC50 of 0.01 to 0.1 µM.

Consider `N#Cc1ccc(-c2cc(Oc3ccccc3)ccc2COC2CN(C#N)C2)cc1` [Example 92, 3-((4′-Cyano-5-phenoxy-[1,1′-biphenyl]-2-yl)methoxy)azetidine-1-carbonitrile], for which the IC50 is 0.01 to 0.1 µM.

Regarding `CN(Cc1ccc(-c2ccccc2)cc1)C1CN(C#N)C1` [Example 103, 3-(([1,1′-Biphenyl]-4-ylmethyl)(methyl)amino)azetidine-1-carbonitrile], the IC50 lay in the range of 0.01 to 0.1 µM.

Consider `COc1ccccc1-c1ccc(COC2CN(C#N)C2)cc1` [Example 75, 3-((2′-Methoxy-[1,1′-biphenyl]-4-yl)methoxy)azetidine-1-carbonitrile], for which the IC50 was 0.01 to 0.1 µM.

Still in this test, the particulars now being: read-out: NAAA Inhibition IC50 μM; purified hNAAA, PAMCA 5 μM, pH 4.5.
For the compound `O=C(CCCCCCc1ccc2ccccc2c1)NCCN=C=S` [Example 7, N-(2-Isothiocyanatoethyl)-7-(naphthalene-2-yl)heptanamide], the IC50 was more than 1 µM.

As for `COc1cccc(-c2ccc(CO[C@H]3C[C@H](N=C=S)C3)cc2)c1` [Example 34, 4′-(((1R,3R)-3-isothiocyanatocyclobutoxy)methyl)-3-methoxy-1,1′-biphenyl], the 50% inhibitory concentration (IC50) was more than 1 µM.

Take `COc1ncccc1-c1ccc(COC2CC(N=C=S)C2)c(F)c1` [Example 41, 3-(3-Fluoro-4-(((1R,3R)-3-isothiocyanatocyclobutoxy)methyl)phenyl)-2-methoxypyridine]: the IC50 lay in the range of 0.11 to 1 µM.

With `S=C=NCCCCCc1ccccc1` [Example 2, (5-Isothiocyanatopentyl)benzene], the IC50 was more than 1 µM.

For the compound `Fc1cc(-c2cccc(C(F)(F)F)c2)ccc1COC1CC(N=C=S)C1` [Example 47, 3-Fluoro-4-(((1R,3R)-3-isothiocyanatocyclobutoxy)methyl)-3′-(trifluoromethyl)-1,1′-biphenyl], the IC50 lay within 0.01 to 0.1 µM.

As to `FC(F)(F)c1cccc(-c2ccc(COC3CCCC(N=C=S)C3)cc2)c1` (centres unmarked) [Example 58, 4′-(((3-Isothiocyanatocyclohexyl)oxy)methyl)-3-(trifluoromethyl)-1,1′-biphenyl], the IC50 was more than 1 µM.

Consider `N#Cc1ncc(OCCOCCOCc2ccccc2)cn1` [Example 117, 5-(2-(2-(benzyloxy)ethoxy)ethoxy)pyrimidine-2-carbonitrile], for which the IC50 is more than 1 µM.

Consider `N#C[C@H]1C[C@@H](OCc2ccc(-c3ccccc3)cc2)C1` [Example 108, (1S,3S)-3-([1,1′-biphenyl]-4-ylmethoxy)cyclobutane-1-carbonitrile], for which the half-maximal inhibitory concentration (IC50) is more than 1 µM.

For `O=C(OCc1ccccc1)N1CCC(CN=C=S)CC1` [Example 13, Benzyl 4-(isothiocyanatomethyl)tetrahydro-1(2H)-pyridinecarboxylate], the IC50 is more than 1 µM.

As for `N#Cc1ccc(OCc2ccc(Oc3ccccc3)cc2Br)cn1` [Example 110, 5-((2-Bromo-4-phenoxybenzyl)oxy)picolinonitrile], the IC50 was more than 1 µM.

`N#Cc1ncc(F)cc1OCc1ccc(-c2ccccc2)cc1` [Example 113, 3-([1,1′-Biphenyl]-4-ylmethoxy)-5-fluoropicolinonitrile]: the IC50 is more than 1 µM.

As to `Cn1cc(-c2ccc(COC3CC(N=C=S)C3)c(F)c2)cn1` [Example 46, 4-(3-Fluoro-4-(((1R,3R)-3-isothiocyanatocyclobutoxy)methyl)phenyl)-1-methyl-1H-pyrazole], the IC50 was in the range of 0.11 to 1 µM.

For the compound `S=C=NCCN1CCN(Cc2ccccc2)CC1` [Example 9, 1-Isothiocyanato-2-(4-benzylpiperazino)ethane], the IC50 is more than 1 µM.

As for `N#Cc1ncc(OCCCCCc2ccccc2)cn1` [Example 116, 5-((5-phenylpentyl)oxy)pyrimidine-2-carbonitrile], the IC50 is more than 1 µM.

Consider `N#Cc1ccc(OCc2ccc(-c3ccccc3)cc2)cn1` [Example 111, 5-([1,1′-Biphenyl]-4-ylmethoxy)picolinonitrile], for which the IC50 is more than 1 µM.

In the case of `COc1ccc(-c2ccc(COC3CC(N=C=S)C3)nc2)cc1F` [Example 42, 5-(3-Fluoro-4-methoxyphenyl)-2-(((1R,3R)-3-isothiocyanatocyclobutoxy)methyl)pyridine], the IC50 was in the range of 0.01 to 0.1 µM.

For `N#CN1CCC(Oc2ccc(Br)cc2)CC1` [Example 106, 4-(4-Bromophenoxy)piperidine-1-carbonitrile], the IC50 is more than 1 µM.

As to `S=C=N[C@@H]1CC[C@@H](OCc2ccc(Br)cc2)C1` [Example 60, 1-Bromo-4-((((1R,3R)-3-isothiocyanatocyclopentyl)oxy)methyl)benzene], the IC50 was more than 1 µM.
